The values that follow come from patent US10939678B2, “Adjuvant compositions and related methods for reducing herbicide volatility” (BOARD OF TRUSTEES OF MICHIGAN STATE UNIVERSITY, priority 2015, dated 2021).

Counter-ions that a name gives are not always drawn.

The conditions of data set [1]: approximate, by way of illustration; cited from earlier work.
For data set [2], the system named is soybean plants (PIONEER 92M92). Put plainly: Bioassay of herbicide volatility from sprayed wheat to soybean plants in plant growth chambers (visual soybean injury). The format is in vivo. Particulars: 1.12 kg a.i./ha, without any adjuvants. The source says: A wide range of soil, plant, environmental, and herbicide factors (e.g., vapor pressure and water solubility of herbicide, surface characteristics) can affect herbicide volatility from soils and plants. Comparison of the volatilization would be most readily visualized by appropriate bioassay systems. These examples illustrate a bioassay system for evaluating herbicide volatilization from plant substrates. In the bioassay system, a herbicide composition including a volatile growth regulator herbicide (2,4-D) and one or more adjuvants was applied foliarly to wheat plants (amber red wheat). Twenty minutes later, soybean plants (PIONEER 92M92 soybean plants) sensitive to the volatile growth regulator herbicide were placed in the middle of the sprayed wheat plants.
Measurement of herbicide volatility from wheat to soybean. Plant growth chambers formed from clear circular plastic containers (about 27 cm diameter) with a spacer pot in the middle were used to grow wheat plants (from amber red wheat seed) in a professional potting mix. […] The herbicide compositions were prepared and applied at a rate of 0.84 kg a.i./ha (active ingredient per hectare) at 93.5 L/ha (10 gal/acre) and 172 kPa (25 psi) using a flat fan nozzle tip (TEEJET XR8001E or equivalent; available from Spraying Systems, Co., Wheaton, Ill.).
Soybean plants (PIONEER 92M92) were seeded into 10 cm diameter round pots. A single pot with soybean plants was placed in the center of each circular plastic container 20 minutes after spraying the wheat with the respective herbicide treatment composition (i.e., with the soybean plant pot replacing the spacer pot present during wheat growth and herbicide composition application). Open clear plastic cylinders were then taped to the top of the circular containers and placed in a greenhouse. The open clear plastic cylinders were tall enough to add an open circumferential wall (about 28 cm high and having a circular top opening about 20 cm in diameter) to the plant growth chambers (i.e., with the height being relative to the soil surface for the wheat and soybean plants). Visual evaluation of soybean injury was evaluated 7, 10, 14, and 21 days after treatment/application (DAT) of the herbicide composition and continued growth under greenhouse conditions. Data were subjected to analysis of variance using PROC GLM in SAS and the results are the means of two experiments with four replications in each.
Similar trials were also performed using herbicide compositions with volatile dicamba volatile growth regulator herbicides (dimethylamine salt of dicamba (BANVEL) and diglycolamine salt of dicamba (CLARITY)) at 1.12 kg a.i./ha in place of 2,4-D and without any adjuvants.

On to `CCCCC(CC)COC(=O)COc1ccc(Cl)cc1Cl` (stereo not drawn) [2,4-D 2-ethylhexyl ester], for which, in data set [1], the vapor pressure is recorded as ~4.8×10^−4 Pa.
Regarding `CCCCOCCOC(=O)COc1ccc(Cl)cc1Cl` [2,4-D butoxyethyl ester], the vapor pressure in data set [1] was ~3.2×10^−4 Pa.
As for `CC(C)OC(=O)COc1ccc(Cl)cc1Cl` [2,4-D isopropyl ester], the vapor pressure in data set [1] is on record as ~1.9×10^1 Pa.
On to `COc1c(Cl)ccc(Cl)c1C(=O)O` [diglycolamine salt of dicamba, 3,6-dichloro-2-methoxybenzoic acid], for which the “% injury of soybean plants from dicamba volatility” value in data set [2] (7-DAT) is on record as “about 28%”; in data set [2] (14-DAT) it was “about 31%”; in data set [2] (21-DAT) it was “about 41%”.
`COc1c(Cl)ccc(Cl)c1C(=O)O` [dimethylamine salt of dicamba, 3,6-dichloro-2-methoxybenzoic acid]: the “% injury of soybean plants from dicamba volatility” value in data set [2] (7-DAT) is approximately 39%; in data set [2] (14-DAT), approximately 39%; in data set [2] (21-DAT), “about 41%”.
